{
  "source": "paper PMC4385514",
  "about": "(Chemical biology & drug design, 2014)",
  "key": {"TbrPDEB1": {"molecular_target": "T1, TbrPDEB1 (Trypanosoma brucei, UniProt Q8WQX9)", "T1 sequence (Q8WQX9 1-930)": "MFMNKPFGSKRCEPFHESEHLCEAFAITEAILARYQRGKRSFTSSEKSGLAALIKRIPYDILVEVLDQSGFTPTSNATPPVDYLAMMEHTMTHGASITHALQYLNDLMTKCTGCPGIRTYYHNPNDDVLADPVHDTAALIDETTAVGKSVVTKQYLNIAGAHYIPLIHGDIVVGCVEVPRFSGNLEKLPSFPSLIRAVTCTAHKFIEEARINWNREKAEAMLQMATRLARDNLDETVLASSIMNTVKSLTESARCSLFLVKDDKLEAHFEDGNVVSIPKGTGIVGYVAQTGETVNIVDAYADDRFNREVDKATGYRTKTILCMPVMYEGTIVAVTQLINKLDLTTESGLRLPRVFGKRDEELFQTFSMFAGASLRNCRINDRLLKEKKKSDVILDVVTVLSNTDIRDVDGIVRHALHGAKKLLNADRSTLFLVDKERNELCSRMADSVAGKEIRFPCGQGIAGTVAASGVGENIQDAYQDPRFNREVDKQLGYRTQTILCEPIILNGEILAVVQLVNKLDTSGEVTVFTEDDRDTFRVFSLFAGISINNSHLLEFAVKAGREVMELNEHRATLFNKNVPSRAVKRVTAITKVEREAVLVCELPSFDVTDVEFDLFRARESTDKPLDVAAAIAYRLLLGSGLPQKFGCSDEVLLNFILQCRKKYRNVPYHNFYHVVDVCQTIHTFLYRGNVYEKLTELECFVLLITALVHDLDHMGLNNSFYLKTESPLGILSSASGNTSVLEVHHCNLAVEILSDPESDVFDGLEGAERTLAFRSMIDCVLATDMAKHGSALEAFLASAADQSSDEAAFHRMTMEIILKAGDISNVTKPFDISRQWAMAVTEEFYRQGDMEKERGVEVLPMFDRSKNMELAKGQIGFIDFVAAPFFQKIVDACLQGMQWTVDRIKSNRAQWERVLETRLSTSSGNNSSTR", "assay": "TbrPDEB1 biochemical assay", "details": "for inhibition at 10 µM: read-out: TbrPDEB1 (% inh); for fold improvement of TbrPDEB1 activity over 3: relative to compound 3"}, "[1]": {"test_system": "Bloodstream forms of Trypanosoma brucei brucei strain 427", "assay": "Trypanosome cell culture assay", "type": "cell-based", "details": "48 h, read-out: T brucei cell (EC50, μM)"}},
  "note": "Structures can show the parent of a compound that is named as a salt.",
  "data": [
    {"smiles": "CNC(=O)c1cnc2c(C)cc(-c3ccc4cnn(C)c4c3)cc2c1Nc1cccc(OC)c1", "note": "[Compound 27a, 4-((3-methoxyphenyl)amino)-N,8-dimethyl-6-(1-methyl-1H-indazol-6-yl)quinoline-3-carboxamide]", "values": [
      {"measurement": "inhibition at 10 µM", "setting": "TbrPDEB1", "value": "34 ± 11", "unit": "%"}
    ]},
    {"smiles": "COc1cccc(Nc2c(C(N)=O)cnc3c(C)cc(S(=O)(=O)c4ccccc4)cc23)c1", "note": "[Compound 10b, 4-((3-methoxyphenyl)amino)-8-methyl-6-(phenylsulfonyl)quinoline-3-carboxamide]", "values": [
      {"measurement": "inhibition at 10 µM", "setting": "TbrPDEB1", "value": "21 ± 16", "unit": "%"}
    ]},
    {"smiles": "COC(=O)c1cccc(S(=O)(=O)c2cc(C)c3ncc(C(N)=O)c(Nc4cccc(OC)c4)c3c2)c1", "note": "[Compound 10a, methyl 3-(3-carbamoyl-4-(3-methoxyphenylamino)-8-methylquinolin-6-ylsulfonyl)benzoate]", "values": [
      {"measurement": "inhibition at 10 µM", "setting": "TbrPDEB1", "value": "70 ± 7.9", "unit": "%"},
      {"measurement": "fold improvement of TbrPDEB1 activity over 3", "setting": "TbrPDEB1", "value": "approximately 8 fold"},
      {"measurement": "EC50", "setting": "[1]", "value": "7.3 ± 0.97", "unit": "µM"}
    ]},
    {"smiles": "COc1cccc(Nc2c(C(N)=O)cnc3c(C)cc(S(=O)(=O)c4cccc(C(N)=O)c4)cc23)c1", "note": "[Compound 12a, 6-(3-carbamoylphenylsulfonyl)-4-(3-methoxyphenylamino)-8-methylquinoline-3-carboxamide]", "values": [
      {"measurement": "inhibition at 10 µM", "setting": "TbrPDEB1", "value": "64 ± 7", "unit": "%"}
    ]},
    {"smiles": "COC(=O)c1cccc(Nc2cc(C)c3ncc(C(N)=O)c(Nc4cccc(OC)c4)c3c2)c1", "note": "[Compound 13, methyl 3-(3-carbamoyl-4-(3-methoxyphenylamino)-8-methylquinolin-6-ylamino)benzoate]", "values": [
      {"measurement": "inhibition at 10 µM", "setting": "TbrPDEB1", "value": "84 ± 7.7", "unit": "%"}
    ]},
    {"smiles": "CNC(=O)c1cccc(S(=O)(=O)c2cc(C)c3ncc(C(N)=O)c(Nc4cccc(OC)c4)c3c2)c1", "note": "[Compound 12b, 4-(3-methoxyphenylamino)-8-methyl-6-(3-(methylcarbamoyl)phenylsulfonyl)quinoline-3-carboxamide]", "values": [
      {"measurement": "inhibition at 10 µM", "setting": "TbrPDEB1", "value": "66 ± 6.1", "unit": "%"}
    ]},
    {"smiles": "COc1cccc(Nc2c(C(N)=O)cnc3c(C)cc(S(=O)(=O)c4cccc(C(=O)O)c4)cc23)c1", "note": "[Compound 11, 3-(3-carbamoyl-4-(3-methoxyphenylamino)-8-methylquinolin-6-ylsulfonyl)benzoic acid]", "values": [
      {"measurement": "inhibition at 10 µM", "setting": "TbrPDEB1", "value": "82 ± 10", "unit": "%"},
      {"measurement": "fold improvement of TbrPDEB1 activity over 3", "setting": "TbrPDEB1", "value": "approximately 8 fold"}
    ]},
    {"smiles": "COc1cccc(Nc2c(C(N)=O)cnc3c(C)cc(Sc4ccccc4)cc23)c1", "note": "[Compound 9b, 4-((3-methoxyphenyl)amino)-8-methyl-6-(phenylthio)quinoline-3-carboxamide]", "values": [
      {"measurement": "inhibition at 10 µM", "setting": "TbrPDEB1", "value": 10, "unit": "%"}
    ]},
    {"smiles": "COC(=O)c1cccc(-c2cc(C)c3ncc(C(N)=O)c(-c4cccc(C(=O)OC)c4)c3c2)c1", "note": "[Compound 21a, dimethyl 3,3′-(3-carbamoyl-8-methylquinoline-4,6-diyl)dibenzoate]", "values": [
      {"measurement": "inhibition at 10 µM", "setting": "TbrPDEB1", "value": "41 ± 5.8", "unit": "%"}
    ]},
    {"smiles": "COC(=O)c1cc(C(=O)O)cc(-c2cc(C)c3ncc(C(N)=O)c(Nc4cccc(OC)c4)c3c2)c1", "note": "[Compound 18b, 3-(3-carbamoyl-4-((3-methoxyphenyl)amino)-8-methylquinolin-6-yl)-5-(methoxycarbonyl)benzoic acid]", "values": [
      {"measurement": "inhibition at 10 µM", "setting": "TbrPDEB1", "value": "31 ± 14", "unit": "%"}
    ]},
    {"smiles": "COc1cccc(Nc2c(C(N)=O)cnc3c(C)cc(S(=O)(=O)c4cccc(C(=O)N(C)C)c4)cc23)c1", "note": "[Compound 3, GSK-256066, reference compound]", "values": [
      {"measurement": "inhibition at 10 µM", "setting": "TbrPDEB1", "value": "51 ± 3.9", "unit": "%"},
      {"measurement": "EC50", "setting": "[1]", "value": "7.8 ± 2.5", "unit": "µM"}
    ]},
    {"smiles": "COc1cccc(Nc2c(C(N)=O)cnc3c(C)cc(-c4cc(C(=O)O)cc(C(=O)O)c4)cc23)c1", "note": "[Compound 18a, 5-(3-carbamoyl-4-((3-methoxyphenyl)amino)-8-methylquinolin-6-yl)isophthalic acid]", "values": [
      {"measurement": "inhibition at 10 µM", "setting": "TbrPDEB1", "value": "10 ± 5.3", "unit": "%"}
    ]},
    {"smiles": "COC(=O)c1cccc(-c2cc(C)c3ncc(C(N)=O)cc3c2)c1", "note": "[Compound 21b, methyl 3-(3-carbamoyl-8-methylquinolin-6-yl)benzoate]", "values": [
      {"measurement": "inhibition at 10 µM", "setting": "TbrPDEB1", "value": 0, "unit": "%"}
    ]},
    {"smiles": "COC(=O)c1cccc(Sc2cc(C)c3ncc(C(N)=O)c(Nc4cccc(OC)c4)c3c2)c1", "note": "[Compound 9a, methyl 3-(3-carbamoyl-4-(3-methoxyphenylamino)-8-methylquinolin-6-ylthio)benzoate]", "values": [
      {"measurement": "inhibition at 10 µM", "setting": "TbrPDEB1", "value": "12 ± 6.1", "unit": "%"}
    ]},
    {"smiles": "Cc1cc(-c2cccc(-c3ncco3)c2)cc2c(NC3CCCC3)c(C(N)=O)cnc12", "note": "[Compound 28, 4-(cyclopentylamino)-8-methyl-6-(3-(oxazol-2-yl)phenyl)quinoline-3-carboxamide]", "values": [
      {"measurement": "inhibition at 10 µM", "setting": "TbrPDEB1", "value": "76 ± 2.2", "unit": "%"}
    ]},
    {"smiles": "COc1cccc(Nc2c(C(=O)N(C)C)cnc3c(C)cc(-c4ccc5cnn(C)c5c4)cc23)c1", "note": "[Compound 27b, 4-((3-methoxyphenyl)amino)-N,N,8-trimethyl-6-(1-methyl-1H-indazol-6-yl)quinoline-3-carboxamide, formic acid salt]", "values": [
      {"measurement": "inhibition at 10 µM", "setting": "TbrPDEB1", "value": "22 ± 3.8", "unit": "%"}
    ]}
  ]
}
